Measurements reported in patent publication US6489317B1, “Method for eradication of Helicobacter pylori” (priority 1998, dated 2002).

Test system: H. pylori
Assay: E-test (epsilon test, AB Biodisc) antibiotic sensitivity of H. pylori cultured from patients
Assay type: cell-based, Helicobacter pylori
Source text: The E-test is used as a graded antibiotic sensitivity detecting strip for examining resistance of H.pylori.

SMILES: CO[C@H]1/C=C/O[C@@]2(C)Oc3c(C)c(O)c4c(c3C2=O)C2=NC3(CCN(CC(C)C)CC3)NC2=C(NC(=O)/C(C)=C\C=C\[C@H](C)[C@H](O)[C@@H](C)[C@@H](O)[C@@H](C)[C@H](OC(C)=O)[C@@H]1C)C4=O [Rifabutin]
- E. Test Rifabutin (H. pylori isolate of each patient): < 0.002 µg/mL
- E. Test Rifabutin Result (H. pylori isolate of each patient, Resistant/Sensitive): Sensitive
- sensitivity of infection to rifabutin (all cases of H. pylori infection resistant to one or both of metronidazole and clarithromycin): sensitive
